Experiments:
[1] = system: tRNA^phe (RNA, tRNA) GCGGAUUUAGCUCAGUUGGGAGAGCGCCAGACUGAAGAUCUGGAGGUCCUGUGUUCGAUCCACAGAAUUCGCACCA; test: DSC and optical melting; settings: Na+, citrate-phosphate buffer pH 7.0, third transition (61°C), first unaffected, compound concentration not stated, per base
[2] = system: tRNA^phe (RNA, tRNA) GCGGAUUUAGCUCAGUUGGGAGAGCGCCAGACUGAAGAUCUGGAGGUCCUGUGUUCGAUCCACAGAAUUCGCACCA; test: fluorescence titration, Scatchard, McGhee-von Hippel; settings: 20 mM Na+, citrate-phosphate buffer pH 7.0, 20°C, per nucleotide phosphate, per base
[3] = system: tRNA^phe (RNA, tRNA) GCGGAUUUAGCUCAGUUGGGAGAGCGCCAGACUGAAGAUCUGGAGGUCCUGUGUUCGAUCCACAGAAUUCGCACCA; test: absorption titration, Scatchard, McGhee-von Hippel; settings: 20 mM Na+, citrate-phosphate buffer pH 7.0, 20°C, per nucleotide phosphate, per base
[4] = system: tRNA^phe (RNA, tRNA) GCGGAUUUAGCUCAGUUGGGAGAGCGCCAGACUGAAGAUCUGGAGGUCCUGUGUUCGAUCCACAGAAUUCGCACCA; test: ITC, single site model; settings: 20 mM Na+, citrate-phosphate buffer pH 7.0, 20°C, per nucleotide phosphate, per base

dTm ([1]; second transition about 4°C)	K′ [2]	K′ [3]	K [4]	dTm ([1]; second transition about 2°C)	K′ ([2]; 240 mM DMSO)	K′ ([3]; 240 mM DMSO)	K ([4]; 240 mM DMSO)	Compound
12.5 °C	18.58 ± 0.32 × 10^4 M^-1	21.20 ± 0.30 × 10^4 M^-1	22.2 ± 0.1 × 10^4 M^-1	–	–	–	–	COc1cccc2c1C(=O)c1c(O)c3c(c(O)c1C2=O)C[C@@](O)(C(C)=O)C[C@@H]3O[C@H]1C[C@H](N)[C@H](O)[C@H](C)O1
–	–	–	–	7 °C	6.38 ± 0.20 × 10^4 M^-1	4.33 ± 0.20 × 10^4 M^-1	6.5 ± 0.3 × 10^4 M^-1	COc1cccc2c1cc1c3c(cc4c(c32)OCO4)C(=O)N1[C@@H]1O[C@H](CO)[C@@H](O)[C@H](O)[C@H]1O
